Test results from article PMC7946963, “Phosphorylation regulates the binding of autophagy receptors to FIP200 Claw domain for selective autophagy initiation” (Nature Communications, 2021).
Peptide text beside a SMILES is read from it.

Assays:
[1] = tested on: FIP200 Claw (FIP200(1450–1594)); test: Analytical gel filtration chromatography with FIP200 Claw; type: binding, human; settings: for interaction of CCPG1 FIR2 variant with FIP200 Claw (in words): analytical gel filtration chromatography and fluorescence spectroscopy-based analyses, Supplementary Fig. 10; for interaction of Optineurin fragment with FIP200 (in words): analytical gel filtration chromatography with FIP200(1450–1594), Fig. 3b, c, Supplementary Fig. 15; for effect of point mutation in Optineurin(169–185) S177E on the interaction with FIP200 (in words): analytical gel filtration chromatography, Supplementary Fig. 16
Description: (§1) Purified proteins were loaded on to a […] 10/300 GL column (GE Healthcare) equilibrated with a buffer containing 20 mM Tris-HCl (pH 7.9), 100 mM NaCl and 1 mM DTT. Analytical gel filtration chromatography was carried out on an AKTA FPLC system (GE Healthcare). The fitting results were further output to the Origin 8.5 software and aligned with each other.

[2] = tested on: different ATG8 proteins (LC3A, LC3B, LC3C, GABARAP, GABARAPL1, GABARAPL2); test: ITC-based measurements of ATG16L1 FIR with ATG8 proteins; settings: one-site binding model, peer review file figure
[3] = tested on: FIP200 Claw Y1564S mutant; test: Analytical gel filtration chromatography with FIP200 Y1564S mutant; type: binding, human; settings: Supplementary Fig. 16
Description: as §1

[4] = tested on: FIP200 Claw K1569A mutant; test: Analytical gel filtration chromatography with FIP200 K1569A mutant; type: binding, human; settings: Supplementary Fig. 16
Description: as §1

[5] = tested on: FIP200 Claw R1573E mutant; test: Analytical gel filtration chromatography with FIP200 R1573E mutant; type: binding, human; settings: Supplementary Fig. 16
Description: as §1

[6] = tested on: FIP200 Claw F1574Q mutant; test: Analytical gel filtration chromatography with FIP200 F1574Q mutant; type: binding, human; settings: Supplementary Fig. 16
Description: as §1

[7] = tested on: all six mammalian ATG8 orthologues; test: Analytical gel filtration chromatography, statement over all ATG8 orthologues; type: binding; settings: qualitative analytical gel filtration chromatography; Supplementary Figs. 20 and 21
Description: as §1

[8] = molecular target: T1, FIP200 Claw domain (residues 1490–1594) (Homo sapiens, UniProt Q8TDY2); test: Fluorescence polarization (FP) binding assay, FITC-peptide titrated with FIP200 Claw; settings: N-terminally FITC-labeled peptide (~0.25 μM) titrated with FIP200 Claw (residues 1490–1594), 20 mM Tris pH 7.9, 100 mM NaCl, 1 mM DTT, 25 °C, one-site binding model, performed in triplicate, read-out: Kd (fitted dissociation constant with standard error)
T1 construct: N-terminal Trx-tag/His6-tag or His6-tag/SUMO-tag (vector for this fragment not specified) (N, cleaved yes); made in house; host or cells: E. coli BL21 (DE3)
T1 sequence (Q8TDY2 1490-1594): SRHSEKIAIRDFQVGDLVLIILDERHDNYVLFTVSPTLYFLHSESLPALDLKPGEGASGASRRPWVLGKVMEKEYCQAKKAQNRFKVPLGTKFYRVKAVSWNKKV
Description: Fluorescence anisotropy binding assays were performed on the SpectraMax i3x Multi-Mode Detection Platform from Molecular Devices, using a 485 nm excitation filter and a 535 nm emission filter. Peptides were labeled with fluorescein isothiocyanate isomer I (Sigma-Aldrich) at their N-terminals. […] The Kd values were obtained by fitting the titration curves with the classical one-site binding model using GraphPad Prism 6 software.

FIP200 Claw = settings: cited from earlier work
From the text: Previous studies have well established a critical role of the FIP200 subunit in the ULK complex for associating with other autophagic factors, especially some autophagy receptors such as CCPG1, NDP52, and P62[30],[49]–[51].

## D105A: D105A point mutant of CCPG1 FIR2 (TASDDSAIVTLEPPK)
[1]
  interaction of CCPG1 FIR2 variant with FIP200 Claw (in words): significantly decrease or essentially disrupt

## Optineurin(186–209): recombinant human Optineurin fragment, residues 186–209
[1]
  interaction of Optineurin fragment with FIP200 (in words): no obvious interactions

## ATG16L1 FIR: ATG16L1 FIR (residues 235-247), FIP200-interacting region of ATG16L1 (EQDDDIEVIVDET; UniProt Q676U5 235-247, looked up, fragment)
[2]
  binding to different ATG8 proteins (in words): can directly bind

## T108A: T108A point mutant of CCPG1 FIR2 (TASDDSDIVALEPPK)
[1]
  interaction of CCPG1 FIR2 variant with FIP200 Claw (in words): significantly decrease or essentially disrupt

## D176R: D176R mutation of the phosphomimetic Optineurin(169–185) S177E mutant (NSSGSSEREFVEIRMAE)
[1]
  effect of point mutation in Optineurin(169–185) S177E on the interaction with FIP200 (in words): significantly attenuate or completely abolish

## F178Q: F178Q mutation of the phosphomimetic Optineurin(169–185) S177E mutant (NSSGSSEDEQVEIRMAE)
[1]
  effect of point mutation in Optineurin(169–185) S177E on the interaction with FIP200 (in words): significantly attenuate or completely abolish

## I106S: I106S point mutant of CCPG1 FIR2 (TASDDSDSVTLEPPK)
[1]
  interaction of CCPG1 FIR2 variant with FIP200 Claw (in words): significantly decrease or essentially disrupt

## Optineurin(169–185) S177E: recombinant phosphomimetic S177E mutant of Optineurin(169–185) that solely includes the LIR motif (NSSGSSEDEFVEIRMAE; UniProt Q96CV9 169-185, looked up, variant S177E)
[1]
  interaction of Optineurin fragment with FIP200 (in words): can specifically interact
[3]
  interaction with FIP200 Y1564S mutant compared with wild type (in words): significantly attenuate or completely abolish
[4]
  interaction with FIP200 K1569A mutant compared with wild type (in words): significantly attenuate or completely abolish
[5]
  interaction with FIP200 R1573E mutant compared with wild type (in words): significantly attenuate or completely abolish
[6]
  interaction with FIP200 F1574Q mutant compared with wild type (in words): significantly attenuate or completely abolish

## CCPG1 FIR2 S104E: recombinant phosphomimetic S104E mutant of CCPG1 FIR2 (residues 99–113) (TASDDEDIVTLEPPK)
[1]
  interaction of CCPG1 FIR2 variant with FIP200 Claw (in words): good abilities to interact
[7]
  interaction with all six mammalian ATG8 orthologues (in words): can directly interact

## p-Optineurin(33–209): Optineurin(33–209) fragment phosphorylated in vitro by TBK1
[1]
  interaction of Optineurin fragment with FIP200 (in words): much stronger binding ability

## CC[C@H](C)[C@H](NC(=O)[C@H](CCC(=O)O)NC(=O)[C@@H](NC(=O)[C@H](Cc1ccccc1)NC(=O)[C@H](COP(=O)(O)O)NC(=O)[C@H](CC(=O)O)NC(=O)[C@H](CCC(=O)O)NC(=O)[C@H](CO)NC(=O)[C@@H](N)CO)C(C)C)C(=O)N[C@@H](CCCNC(=N)N)C(=O)N[C@@H](CCSC)C(=O)N[C@@H](C)C(=O)N[C@@H](CCC(=O)O)C(=O)O [p-Optineurin LIR] (HELM PEPTIDE1{S.S.E.D.[O=C([C@H](COP(=O)(O)O)N[*:1])[*:2]].F.V.E.I.R.M.A.E}$$$$V2.0)
[8]
  Kd: 11.5 ± 1.74 µM

## phosphomimetic quadruple mutations (S349D, S365D, S366D, and S370D) of P62: P62 with phosphomimetic S349D, S365D, S366D, S370D mutations, from ref 49
FIP200 Claw
  enhancement of the binding affinity of P62 for FIP200 Claw by phosphomimetic mutations: roughly by twofold

## L109A: L109A point mutant of CCPG1 FIR2 (TASDDSDIVTAEPPK)
[1]
  interaction of CCPG1 FIR2 variant with FIP200 Claw (in words): significantly decrease or essentially disrupt

## Optineurin(33–168): recombinant human Optineurin fragment, residues 33–168
[1]
  interaction of Optineurin fragment with FIP200 (in words): no obvious interactions
